IC50 data for seven compounds are collected here from ChEMBL document CHEMBL4346708, “Synthetic approaches and pharmaceutical applications of chloro-containing molecules for drug discovery: A critical review” (Eur J Med Chem, 2019).

In assay [1] the target is Amyloid-beta precursor protein (Homo sapiens, UniProt P05067). As to the kind of experiment: Inhibition of amyloid beta (1 to 42) (unknown origin) aggregation.
A further assay relates to Erythrocyte. As to the kind of experiment: Antiinflammatory activity in human erythrocytes assessed as inhibition of hypotonic solution-induced haemolysis after 10 mins by spectrophotometric analysis. Type of assay: functional, cell-based.
Assay [2] in a line: Anti glycation activity assessed as inhibition of BSA glycation after 7 days in presence of glucose by spectrofluorimetry assay. It is filed as functional.
For another assay, the target named is Alpha glucosidase (Homo sapiens, UniProt O43451+P10253+P14410+Q2M2H8). As to the kind of experiment: Inhibition of alpha-glucosidase (unknown origin) using p-nitrophenyl-a-d-glucopyranoside as substrate preincubated for 5 mins followed by substrate addition measured after 5 mins by spectrophotometric analysis. It is filed as protein assay.
Assay [3] in a line: Inhibition of porcine pancreatic alpha-amlyase after 10 mins. The arrangement: species or system Sus scrofa.
Assay [4] is described as follows: Antioxidant activity assessed as DPPH radical scavenging activity after 30 mins. Type of assay: functional.

Chain of Amyloid-beta precursor protein (P05067 whole entry): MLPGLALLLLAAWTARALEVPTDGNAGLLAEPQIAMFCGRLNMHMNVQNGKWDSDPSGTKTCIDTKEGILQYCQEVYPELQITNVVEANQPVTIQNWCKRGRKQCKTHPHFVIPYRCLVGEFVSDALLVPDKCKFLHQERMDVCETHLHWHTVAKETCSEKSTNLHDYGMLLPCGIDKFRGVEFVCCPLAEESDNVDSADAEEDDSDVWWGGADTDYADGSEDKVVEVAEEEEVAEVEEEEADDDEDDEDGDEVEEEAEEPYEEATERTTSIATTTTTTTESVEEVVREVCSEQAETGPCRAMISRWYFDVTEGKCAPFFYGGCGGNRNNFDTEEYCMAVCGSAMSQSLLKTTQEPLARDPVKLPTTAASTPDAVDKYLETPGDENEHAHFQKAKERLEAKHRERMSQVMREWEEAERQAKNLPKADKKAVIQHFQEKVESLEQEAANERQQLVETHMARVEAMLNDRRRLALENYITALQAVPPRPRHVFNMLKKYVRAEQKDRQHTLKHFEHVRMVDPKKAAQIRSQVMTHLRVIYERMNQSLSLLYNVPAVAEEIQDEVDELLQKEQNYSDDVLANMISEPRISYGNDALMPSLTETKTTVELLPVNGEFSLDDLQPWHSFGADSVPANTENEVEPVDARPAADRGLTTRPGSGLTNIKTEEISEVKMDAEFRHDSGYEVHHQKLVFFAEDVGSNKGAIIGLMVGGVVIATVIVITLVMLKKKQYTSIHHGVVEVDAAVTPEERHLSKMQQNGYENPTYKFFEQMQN

For orientation: IC50 means the concentration that inhibits the measured activity by half. Regarding `O=c1c2c(F)cccc2[se]n1-c1cc(Cl)c(O)c2ncccc12`, the IC50 in assay [1] amounted to 9.6 µM. `CCCc1nc(C(C)(C)O)c(C(=O)N/N=C/c2ccc(Cl)cc2Cl)[nH]1`: the 50% inhibitory concentration (IC50) in the assay on Erythrocyte stood at 46 µM. For the compound `Oc1ccc(-c2nc3ncc(Cl)cc3[nH]2)c(O)c1`, the IC50 in assay [2] was found to be 240 µM. As to `Clc1ccc(-c2nnc(/N=C/c3ccc(Cl)cc3Cl)s2)cc1`, the IC50 against Alpha glucosidase stood at 4.7 µM.

`O=C(NNC(=S)Nc1ccc(F)cc1)c1cc2cc(Cl)cnc2[nH]1` had a half-maximal inhibitory concentration (IC50) in assay [3] of 2.03 µM. Same read-out and setting: the same measure for `O=C(NNC(=S)Nc1ccccc1Cl)c1cc2cc(Cl)ccc2[nH]1`: 2.1 µM. In the case of `Oc1ccc(O)c(-c2nc3ncc(Cl)cc3[nH]2)c1`, the IC50 in assay [4] amounted to 72.5 µM.
